# Source: PMC7597557 (PLoS Pathogens, 2020)
# pIC50: −log10 of the molar value. Peptide text beside a SMILES is read from it.
# Tests used:
# [1] = target: T1, H-2 K^b (Mus musculus, UniProt P01901); test: RMA-S K^b stabilization assay
# T1 sequence (P01901 22-369): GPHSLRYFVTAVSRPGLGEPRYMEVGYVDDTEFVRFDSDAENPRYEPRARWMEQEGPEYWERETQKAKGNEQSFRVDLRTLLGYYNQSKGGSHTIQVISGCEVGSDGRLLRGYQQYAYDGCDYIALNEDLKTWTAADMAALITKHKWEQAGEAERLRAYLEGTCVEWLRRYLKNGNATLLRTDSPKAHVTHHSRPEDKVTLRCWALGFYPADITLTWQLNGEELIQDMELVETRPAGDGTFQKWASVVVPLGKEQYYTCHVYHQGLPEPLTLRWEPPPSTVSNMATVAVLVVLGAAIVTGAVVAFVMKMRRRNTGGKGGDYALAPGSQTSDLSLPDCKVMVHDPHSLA
# T1 sequence (P01887 21-119 partner): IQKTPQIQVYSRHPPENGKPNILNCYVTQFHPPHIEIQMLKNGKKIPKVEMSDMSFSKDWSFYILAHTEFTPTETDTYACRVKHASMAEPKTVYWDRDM
# [2] = C57BL/6J mice, 37C, up to 60 minutes
Compound,pIC50 [1],further results
CC[C@H](C)[C@H](N)C(=O)N[C@@H](CCSC)C(=O)N[C@@H](Cc1ccc(O)cc1)C(=O)N[C@@H](CC(N)=O)C(=O)N[C@@H](Cc1ccc(O)cc1)C(=O)N1CCC[C@H]1C(=O)N[C@H](C(=O)N[C@@H](CCSC)C(=O)O)[C@@H](C)O [A10T] (H-IMYNYPTM-OH),4.55,
CC[C@H](C)[C@H](N)C(=O)N[C@@H](CCSC)C(=O)N[C@@H](Cc1ccc(O)cc1)C(=O)N[C@@H](CC(N)=O)C(=O)N[C@@H](Cc1ccc(O)cc1)C(=O)N1CCC[C@H]1C(=O)N[C@H](C(=O)N[C@@H](CCSC)C(=O)O)C(C)C [A10V] (H-IMYNYPVM-OH),4.67,
CC[C@H](C)[C@H](N)C(=O)N[C@@H](CCSC)C(=O)N[C@@H](Cc1ccc(O)cc1)C(=O)N[C@@H](CC(N)=O)C(=O)N[C@@H](Cc1ccc(O)cc1)C(=O)N1CCC[C@H]1C(=O)N[C@@H](C)C(=O)N[C@H](C(=O)O)[C@@H](C)CC [M11I] (H-IMYNYPAI-OH),4.54,
CC[C@H](C)[C@H](N)C(=O)N[C@@H](CCSC)C(=O)N[C@@H](Cc1ccc(O)cc1)C(=O)N[C@@H](CC(N)=O)C(=O)N[C@@H](Cc1ccc(O)cc1)C(=O)N[C@@H](CO)C(=O)N[C@@H](C)C(=O)N[C@@H](CCSC)C(=O)O [P9S] (H-IMYNYSAM-OH),4.23,
CC[C@H](C)[C@H](NC(=O)[C@@H](NC(=O)[C@@H](N)CO)[C@@H](C)CC)C(=O)N[C@@H](CC(N)=O)C(=O)N[C@@H](Cc1ccccc1)C(=O)N[C@@H](CCC(=O)O)C(=O)N[C@@H](CCCCN)C(=O)N[C@@H](CC(C)C)C(=O)O [reference compound],5.14,
IMANAPAM,,"Stabilization of K^b (in words) ([1]; RMA-S cells, surface K^b by flow cytometry, negative control peptide): failed to stabilize K^b"
MSQIMYNYPTMLGHAGDMAGYAGTLQSLGAEIAV,,cleaved bond [2]: Y21-A22
